Where two headings read alike, the source gives them in different places. One block for each compound: values may come before it.
Legend:
Format in all cases: binding
BRD4-D1 = target: T1, BRD4-D1 (Homo sapiens, UniProt O60885); experiment: Fluorescence anisotropy competition with Fl-JQ1
T1 construct: His6 BRD4 D1 were expressed and purified as reported by A. K. Urick; His6; made in house

BRD4-D2 = target: T2, BRD4-D2 (Homo sapiens, UniProt O60885); experiment: Fluorescence anisotropy competition with Fl-JQ1
T2 construct: the second bromodomain of BRD4 (residues 333-460); host or cells: E. coli BL21 Star (DE3)

His9-BRD4 D1 = target: T3, His9-BRD4 D1 (Homo sapiens, UniProt O60885); experiment: AlphaScreen assay with His9-BRD4 D1; settings: mean of two technical replicates
T3 construct: 7.5-60 nM for His9-tagged BRD4 D1; made in house; host or cells: E. coli BL21(DE3) with pRARE

p38α = target: T4, p38α (Homo sapiens, UniProt Q16539); experiment: p38 competitive inhibition assay (KINOMEscan, Eurofins DiscoverX); settings: mean of two biological replicates
T4 construct: phage display fusion; purchased Eurofins DiscoverX (Fremont California), KINOMEscan service

[1] = mean and standard deviation of three independent trials, read-out: IC50 BRD4-D1
[2] = mean and SEM of three biological replicates, read-out: BRD4 D1 IC50 by FA

T4 sequence (Q16539 whole entry, the tested form may be a part): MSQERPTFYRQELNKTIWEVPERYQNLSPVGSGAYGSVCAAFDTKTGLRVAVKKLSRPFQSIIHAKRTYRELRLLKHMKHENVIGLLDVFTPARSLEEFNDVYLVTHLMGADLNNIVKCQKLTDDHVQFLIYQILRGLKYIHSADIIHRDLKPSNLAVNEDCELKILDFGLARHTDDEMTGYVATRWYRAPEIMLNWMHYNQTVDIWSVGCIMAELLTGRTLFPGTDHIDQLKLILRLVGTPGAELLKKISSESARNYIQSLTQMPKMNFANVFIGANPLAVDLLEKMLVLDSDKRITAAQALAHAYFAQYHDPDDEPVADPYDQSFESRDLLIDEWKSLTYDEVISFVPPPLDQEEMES

Structure (SMILES): CCC(C)c1cc(C)cc(Oc2cccc(-c3c(C)nnn3C3CCNCC3)n2)c1 (centres unmarked) [drawing 188]
IC50 (BRD4-D1; [1]): 3.21 ± 0.3 µM | IC50 (BRD4-D2): 7.35 µM

Structure (SMILES): Cc1cc(C)cc(Oc2cncc(-c3c(C)nnn3C3CCNCC3)c2)c1
IC50 (BRD4-D1; [2]): > 100 µM

Structure (SMILES): Cc1cc(C)cc(Oc2nccc(-c3c(C(C)C)nnn3C3CCNCC3)n2)c1
IC50 (BRD4-D1; [2]): > 100 µM

Structure (SMILES): Cc1ccc(Nc2nccc(-c3c(-c4ccc(F)cc4)ncn3C3CCNCC3)n2)cc1C
IC50 (BRD4-D1; [2]): 1.3 ± 0.2 µM

Structure (SMILES): Cc1cc(C)cc(Oc2ccnc(-c3c(C)nnn3C3CCN(C(=N)N)CC3)c2)c1 [drawing 184]
IC50 (BRD4-D1; [1]): > 100 µM

Structure (SMILES): Cc1cc(C)cc(Oc2cccc(-c3c(C)nnn3C3CCN(C(=N)N)CC3)c2)c1 [drawing 180]
IC50 (BRD4-D1; [1]): 12 ± 1.1 µM

Structure (SMILES): Cc1cc(Oc2cccc(-c3c(C)nnn3C3CCNCC3)n2)cc(C(C)C)c1 [drawing 187]
IC50 (BRD4-D2): 4.76 µM

Structure (SMILES): CC(=O)NCCN1CCC(n2cnc(-c3ccc(C(F)(F)F)cc3)c2-c2ccnc(Nc3cc(C)cc(C)c3)n2)CC1
IC50 (His9-BRD4 D1): 1.5 µM | IC50 (BRD4-D1; [2]): 0.42 ± 0.01 µM

Structure (SMILES): Cc1cc(C)cc(Nc2nccc(-c3c(-c4ccc(F)cc4)nnn3C3CCNCC3)n2)c1
IC50 (BRD4-D1; [2]): > 100 µM | Kd (p38α): 0.12 ± 0.051 µM

Structure (SMILES): Cc1cc(C)cc(Oc2cccc(-c3c(-c4ccc(C(F)(F)F)cc4)ncn3C3CCN(CCN)CC3)n2)c1
IC50 (His9-BRD4 D1): 1.3 µM | IC50 (BRD4-D1; [2]): 1.1 ± 0.01 µM | Kd (p38α): > 30 µM

Structure (SMILES): Cc1cc(C)cc(Nc2nccc(-c3c(CO)nnn3C3CCNCC3)n2)c1
IC50 (His9-BRD4 D1): 160 µM

Structure (SMILES): Cc1cc(C)cc(Oc2cc(-c3c(C)nnn3C3CCN(C(=N)N)CC3)ccn2)c1 [drawing 182]
IC50 (BRD4-D1; [1]): 97 ± 2.6 µM

Structure (SMILES): Cc1cc(C)cc(Oc2cccc(-c3c(C)nnn3C3CCN(C(=N)N)CC3)n2)c1 [drawing 181]
IC50 (BRD4-D1; [1]): 3.6 ± 0.05 µM

Structure (SMILES): Cc1cc(C)cc(Oc2nccc(-c3c(C4CC4)nnn3C3CCN(C(=N)N)CC3)n2)c1
IC50 (BRD4-D1; [2]): 61 ± 8.1 µM

Structure (SMILES): Cc1cc(C)cc(Nc2nccc(-c3c(-c4ccc(C(F)(F)F)cc4)ncn3C3CCN(CCN(C)C)CC3)n2)c1
IC50 (His9-BRD4 D1): 0.2 µM | IC50 (BRD4-D1; [2]): 0.15 ± 0.03 µM

Structure (SMILES): Cc1cc(C)cc(Oc2ccnc(-c3c(C)nnn3C3CCNCC3)c2)c1
IC50 (BRD4-D1; [2]): > 100 µM

Structure (SMILES): Cc1cc(C)cc(Nc2nccc(-c3c(-c4ccccc4)ncn3C3CCNCC3)n2)c1
IC50 (His9-BRD4 D1): 2.6 µM | IC50 (BRD4-D1; [2]): 4.5 ± 0.2 µM

Structure (SMILES): Cc1cc(C)cc(Nc2nccc(-c3c(-c4ccc(Cl)cc4)ncn3C3CCN(C(=N)N)CC3)n2)c1
IC50 (His9-BRD4 D1): 1.4 µM | IC50 (BRD4-D1; [2]): 1.6 µM

Structure (SMILES): CCCCc1cc(CCCC)cc(Oc2cccc(-c3c(C)nnn3C3CCNCC3)n2)c1 [drawing 195]
IC50 (BRD4-D1; [1]): 8.61 µM | IC50 (BRD4-D2): 27.7 µM

Structure (SMILES): Cc1ccc(-c2ncn(C3CCNCC3)c2-c2ccnc(Nc3cc(C)cc(C)c3)n2)cc1
IC50 (His9-BRD4 D1): 1.1 µM | IC50 (BRD4-D1; [2]): 1.2 ± 0.2 µM

Structure (SMILES): Cc1cc(C)cc(Oc2nccc(-c3c(C)nnn3C3CCNCC3)n2)c1
IC50 (BRD4-D1; [1]): 3.01 µM | IC50 (BRD4-D2): 5.87 µM

Structure (SMILES): Cc1cc(C)cc(Oc2nccc(-c3c(C)nnn3C3CCN(C(=N)N)CC3)n2)c1 [drawing 179]
IC50 (BRD4-D1; [1]): 9.7 ± 1.8 µM

Structure (SMILES): Fc1ccc(-c2ncn(C3CCNCC3)c2-c2ccnc(Oc3cc(F)cc(F)c3)n2)cc1
IC50 (BRD4-D1; [2]): > 250 µM

Structure (SMILES): Cc1cc(C)cc(Nc2cccc(-c3c(C)nnn3C3CCNCC3)n2)c1
IC50 (BRD4-D1; [2]): 4.5 ± 0.35 µM | Kd (p38α): > 0.025 µM

Structure (SMILES): Cc1cc(C)cc(Nc2cccc(-c3c(C)nnn3C3CCN(C(=N)N)CC3)n2)c1
IC50 (BRD4-D1; [2]): 4.5 ± 0.35 µM

Structure (SMILES): Cc1cc(Oc2cccc(-c3c(C)nnn3C3CCNCC3)n2)cc(C2CCCC2)c1 [drawing 189]
IC50 (BRD4-D1; [1]): 4.44 µM | IC50 (BRD4-D2): 7.35 µM

Structure (SMILES): Cc1cc(C)cc(Oc2cc(-c3c(C)nnn3C3CCNCC3)ccn2)c1
IC50 (BRD4-D1; [2]): 97 ± 2.6 µM

Structure (SMILES): CCCc1nnn(C2CCNCC2)c1-c1ccnc(Oc2cc(C)cc(C)c2)n1
IC50 (BRD4-D1; [2]): > 100 µM

Further lines, results first:

IC50 (His9-BRD4 D1): 27.7 µM | IC50 (BRD4-D1; [2]): 8.61 µM
Structure (SMILES): CCCCc1cc(CCCC)cc(Oc2cccc(-c3c(C)nnn3C3CCNCC3)n2)c1 [drawing 259]

IC50 (BRD4-D1; [2]): 97 ± 2.6 µM
Structure (SMILES): Cc1cc(C)cc(Oc2cc(-c3c(C)nnn3C3CCN(C(=N)N)CC3)ccn2)c1 [drawing 225]

IC50 (BRD4-D1; [2]): > 100 µM
Structure (SMILES): Cc1cc(C)cc(Oc2ccnc(-c3c(C)nnn3C3CCN(C(=N)N)CC3)c2)c1 [drawing 227]

IC50 (BRD4-D1; [2]): 62.6 µM
Structure (SMILES): Cc1nnn(C2CCNCC2)c1-c1cccc(Oc2cc(C3CCCCC3)cc(C3CCCCC3)c2)n1 [drawing 261]

IC50 (His9-BRD4 D1): 7.35 µM | IC50 (BRD4-D1; [2]): 3.21 ± 0.3 µM
Structure (SMILES): CCC(C)c1cc(C)cc(Oc2cccc(-c3c(C)nnn3C3CCNCC3)n2)c1 (centres unmarked) [drawing 252]

IC50 (BRD4-D1; [2]): 4.44 µM
Structure (SMILES): Cc1cc(Oc2cccc(-c3c(C)nnn3C3CCNCC3)n2)cc(C2CCCC2)c1 [drawing 253]

IC50 (His9-BRD4 D1): 45.6 µM
Structure (SMILES): Cc1nnn(C2CCNCC2)c1-c1cccc(Oc2cc(C(F)(F)F)cc(C(F)(F)F)c2)n1 [drawing 263]

IC50 (BRD4-D2): 45.6 µM
Structure (SMILES): Cc1nnn(C2CCNCC2)c1-c1cccc(Oc2cc(C(F)(F)F)cc(C(F)(F)F)c2)n1 [drawing 199]

IC50 (BRD4-D1; [2]): 12 ± 1.1 µM
Structure (SMILES): Cc1cc(C)cc(Oc2cccc(-c3c(C)nnn3C3CCN(C(=N)N)CC3)c2)c1 [drawing 223]

IC50 (BRD4-D1; [2]): 9.7 ± 1.8 µM
Structure (SMILES): Cc1cc(C)cc(Oc2nccc(-c3c(C)nnn3C3CCN(C(=N)N)CC3)n2)c1 [drawing 222]

IC50 (His9-BRD4 D1): 4.76 µM
Structure (SMILES): Cc1cc(Oc2cccc(-c3c(C)nnn3C3CCNCC3)n2)cc(C(C)C)c1 [drawing 251]

IC50 (BRD4-D1; [1]): 62.6 µM
Structure (SMILES): Cc1nnn(C2CCNCC2)c1-c1cccc(Oc2cc(C3CCCCC3)cc(C3CCCCC3)c2)n1 [drawing 197]

IC50 (BRD4-D1; [2]): 3.6 ± 0.05 µM
Structure (SMILES): Cc1cc(C)cc(Oc2cccc(-c3c(C)nnn3C3CCN(C(=N)N)CC3)n2)c1 [drawing 224]
